Data set [1] concerns the target T1, human tenascin-C (Homo sapiens, UniProt P24821). Put plainly: Competition filter binding assay against 99mTc-TTA1-MAG2. The settings on record: 2 nM human TN-C, 1 nM 99mTc-TTA1-MAG2, competed with unlabeled aptamer, 37° C., 15 min. The procedure: A competition filter binding assay was carried out in order to determine binding constants (EC50). Samples of 2 nM human TN-C were incubated with 1 nM ^99mTc-TTA1-MAG2 in TBSMC buffer (20 mM Tris, pH 7.4; 137 mM NaCl; 1 mM CaCl2; 1 mM MgCl2) and the binding competed with varying concentrations of unlabeled aptamer (see pipetting scheme in FIG. 9.1). Incubation was carried out at 37° C. for 15 min. Subsequently, the solutions were pipetted on a Minifold Device equipped with a supported nitrocellulose membrane and Whatman filter paper and were washed with buffer using vacuum. Residual radioactivity on the filter due to tenascin-C bound labeled aptamer was quantified using a Phosphorimager. EC50 values were calculated using GraphPadPrism 3.02 (San Diego, Calif., USA) plotting one-side competition non-linear regression curves.

Data set [2] has as its target T1, human tenascin-C. The settings on record: cited from earlier work.

Like-named read-outs stand apart in the source and are kept apart here.

T1 sequence (P24821 23-2201): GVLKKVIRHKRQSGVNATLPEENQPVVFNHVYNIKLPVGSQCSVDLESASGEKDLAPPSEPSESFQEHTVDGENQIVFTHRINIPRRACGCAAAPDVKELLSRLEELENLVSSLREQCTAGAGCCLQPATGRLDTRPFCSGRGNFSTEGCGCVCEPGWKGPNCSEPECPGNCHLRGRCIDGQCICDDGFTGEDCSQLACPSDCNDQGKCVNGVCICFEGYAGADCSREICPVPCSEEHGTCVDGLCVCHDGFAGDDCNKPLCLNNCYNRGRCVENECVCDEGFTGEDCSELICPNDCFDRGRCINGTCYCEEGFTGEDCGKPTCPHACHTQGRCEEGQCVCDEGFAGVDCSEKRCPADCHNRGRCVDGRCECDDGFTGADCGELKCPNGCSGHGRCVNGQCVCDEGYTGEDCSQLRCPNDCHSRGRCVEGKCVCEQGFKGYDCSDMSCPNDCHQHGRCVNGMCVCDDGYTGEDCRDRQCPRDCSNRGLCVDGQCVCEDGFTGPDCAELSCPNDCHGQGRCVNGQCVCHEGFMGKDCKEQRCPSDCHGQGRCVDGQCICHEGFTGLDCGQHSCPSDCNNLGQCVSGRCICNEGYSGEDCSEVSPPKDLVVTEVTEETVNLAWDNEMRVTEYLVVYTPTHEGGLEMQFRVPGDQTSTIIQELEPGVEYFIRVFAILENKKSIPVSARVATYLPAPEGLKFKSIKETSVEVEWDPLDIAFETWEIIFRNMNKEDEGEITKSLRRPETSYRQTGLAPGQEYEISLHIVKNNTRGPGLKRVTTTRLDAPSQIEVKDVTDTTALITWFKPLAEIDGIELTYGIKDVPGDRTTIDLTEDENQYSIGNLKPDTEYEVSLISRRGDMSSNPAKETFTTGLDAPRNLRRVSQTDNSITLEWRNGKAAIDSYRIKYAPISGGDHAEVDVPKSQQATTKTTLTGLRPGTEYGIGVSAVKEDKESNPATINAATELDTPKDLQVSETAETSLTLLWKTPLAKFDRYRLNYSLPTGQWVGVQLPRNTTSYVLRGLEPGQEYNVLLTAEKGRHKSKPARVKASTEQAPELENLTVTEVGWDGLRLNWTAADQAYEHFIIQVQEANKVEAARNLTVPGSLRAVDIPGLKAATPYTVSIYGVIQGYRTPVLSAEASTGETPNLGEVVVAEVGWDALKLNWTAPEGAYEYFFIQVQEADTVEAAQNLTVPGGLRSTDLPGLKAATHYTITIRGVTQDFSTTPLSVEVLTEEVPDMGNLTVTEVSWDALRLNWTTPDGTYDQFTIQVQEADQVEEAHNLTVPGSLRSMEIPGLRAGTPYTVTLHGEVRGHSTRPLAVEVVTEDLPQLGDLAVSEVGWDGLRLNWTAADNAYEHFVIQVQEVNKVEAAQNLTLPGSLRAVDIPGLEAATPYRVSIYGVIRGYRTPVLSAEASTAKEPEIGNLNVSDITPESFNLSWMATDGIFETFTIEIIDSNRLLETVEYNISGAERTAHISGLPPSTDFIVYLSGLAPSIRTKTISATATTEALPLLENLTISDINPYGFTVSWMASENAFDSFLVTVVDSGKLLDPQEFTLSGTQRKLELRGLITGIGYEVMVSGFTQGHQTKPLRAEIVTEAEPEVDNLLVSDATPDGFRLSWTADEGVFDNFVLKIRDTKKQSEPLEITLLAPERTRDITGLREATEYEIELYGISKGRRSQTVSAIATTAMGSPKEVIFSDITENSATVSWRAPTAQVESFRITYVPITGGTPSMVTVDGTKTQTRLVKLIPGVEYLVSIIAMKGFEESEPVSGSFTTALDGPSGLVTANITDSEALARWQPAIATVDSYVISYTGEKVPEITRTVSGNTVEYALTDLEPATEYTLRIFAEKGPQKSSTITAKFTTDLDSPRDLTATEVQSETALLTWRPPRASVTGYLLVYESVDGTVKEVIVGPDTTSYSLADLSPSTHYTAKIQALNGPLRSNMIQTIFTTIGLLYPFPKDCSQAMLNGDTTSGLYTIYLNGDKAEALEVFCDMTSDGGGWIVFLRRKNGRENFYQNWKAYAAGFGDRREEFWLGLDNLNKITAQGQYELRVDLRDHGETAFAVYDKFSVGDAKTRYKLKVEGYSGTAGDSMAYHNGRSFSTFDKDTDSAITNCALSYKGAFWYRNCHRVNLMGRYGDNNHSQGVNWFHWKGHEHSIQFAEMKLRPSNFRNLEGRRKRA

As a reminder, the EC50 is the concentration at which the effect is half-maximal. Substance “5′-(aminomodifier C2 dT)-mA mGmGmG mAmGG mAfCmG-(CH2CH2O)6-fCGfU fCGfC fCGfU mAmAfU mGmGmA fUmGfU fUfUfU mGfCfU fCfCfC fUmG-3′-3′-T (chain 1 AGGGAGGACG; chain 2 CGUCGCCGUAAUGGAUGUUUUGCUCCCUG; 2'-OMe and 2'-F mix, some positions unassigned, 5' amino-C2 dT, hexaethylene glycol spacer, 3'-3' dT, further chemistry not given here) [TTA5]” yielded an EC50 in data set [1] of 39 nM.
“5′-LGLGLG LALGmG mAfCrG-(CH2OCH2)6-fCGfU fCGfC fCGfU mAmAfU mGmGmA fUmGfU fUfUfU mGLCLU LCLCLC-(CH2)6NH2-3′ (CGUCGCCGUAAUGGAUGUUUUG; LNA/2'-OMe/2'-F, PEG spacer, 3' aminohexyl, chemistry not fully specified) [TTA7]” had an EC50 in data set [1] of 2 nM.
The term Kd denotes the constant that tells how readily two partners part at equilibrium. Take “5′-NH2-C6-O-PO2-O-GGG AGG ACG-(CH2CH2O)6-CGUCGCCGUAAUGGAUGUUUUGCUCCCUG-3′-3′-T (CGUCGCCGUAAUGGAUGUUUUGCUCCCUG; 5' aminohexyl, hexaethylene glycol spacer, 3'-3' inverted dT, chemistry not fully specified) [TTA1]”: it took 6 nM to reach a half-maximal effect in data set [1] (EC50). The Kd in data set [2] (final synthetic oligonucleotide, Hicke et al., read-out: KD) was 5 nM; in data set [2] (human tenascin-C, read-out: binding affinity KD), 5 nM.
For “5′-NH2-C6-O-PO2-O-mGmGmG mAmGG mAfCmG-(CH2CH2O)6-fCGfU fCGfC fCGfU mAmAfU mGmGmA fUmGfU fUfUfU mGfCfU fCfCfC UG-3′-3′-T (CGUCGCCGUAAUGGAUGUUUUGCUCCCUG; 2'-OMe/2'-F, 5' aminohexyl, PEG spacer, 3' inverted dT, chemistry not fully specified) [TTA3]”, in data set [1], the EC50 came out at 19 nM.
On the same count and under the same terms, to “5′-NH2-C6-O-PO2-O-mGmGmG mAmGG mAfCmG-(CH2CH2O)6-fCGfU fCGfC fCGfU mAmAfU mGmGmA fUmGfU fUfUfU mGfCfU fCfCfC UmG-3′-3′-T (CGUCGCCGUAAUGGAUGUUUUGCUCCCUG; 2'-OMe/2'-F, 5' aminohexyl, PEG spacer, 3' inverted dT, chemistry not fully specified) [TTA2]” belongs 31 nM; to “5′-NH2-C6-O-SPO-O-mGmGmG mAmGG mAfCmG-(CH2CH2O)6-fCGfU fCGfC fCGfU mAmAfU mGmGmA fUmGfU fUfUfU mGfCfU fCfCfC fUmG-3′-3′-T (CGUCGCCGUAAUGGAUGUUUUGCUCCCUG; 5' aminohexyl phosphorothioate, 2'-OMe/2'-F, PEG spacer, inverted dT, chemistry not fully specified) [TTA6]”, 14 nM.
The substance “5′-mGmGmG mAmGG mAfCmG-(CH2CH2O)6-fCGfU fCGfC fCGfU mAmAfU mGmGmA fUmGfU fUfUfU mGfCfU fC(C6-NH2)CfC-3′-3′-T (CGUCGCCGUAAUGGAUGUUUUGCUC; 2'-OMe/2'-F, internal C6-amine, PEG spacer, 3' inverted dT, chemistry not fully specified) [TTA4]” registered a concentration for a half-maximal effect (EC50) in data set [1] of 20 nM.
In data set [1], “5′-mGmGmG mAmGmG mAfCrG-(CH2OCH2)6-fCGfU fCGfC fCGfU mAmAfU mGmGmA fUmGfU fUfUfU mGmCmU mCmCmC-(CH2)6NH2-3′ (CGUCGCCGUAAUGGAUGUUUUGCUCCC; 2'-OMe/2'-F, PEG spacer, 3' aminohexyl, chemistry not fully specified) [TTA8]” registered an EC50 of 14 nM.

The record behind these values is patent US20090068103A1, “APTAMERS LABELED WITH 68GA” (priority 2006, published 2009).
